Data from patent US11771711B2, “Substituted pyridines as DNMT1 inhibitors” (GlaxoSmithKline Intellectual Property Development Limited, priority 2021, dated 2023).

How the values were obtained:
physchem = conditions: FaSSIF buffer, pH 6.5, fassif, thermodynamic from solid
Procedure: Solubility of Solid Compounds in Fasted Simulated Intestinal Fluid
The solubility of solid compounds in Fasted Simulated Intestinal Fluid (FaSSIF) was determined at pH 6.5 after 4 hour equilibration at room temperature (using procedures described in Sou, T.; Bergström, C. A. S. Automated assays for thermodynamic (equilibrium) solubility determination. Drug Discovery Today: Technologies 2018, 27, 11-19). 1 ml of FaSSIF buffer (3 mM Sodium taurocholate, 0.75 mM lecithin in sodium phosphate buffer at pH6.5) was added to manually weighed 1 mg of solid compound in a 4 ml vial. The resulting suspension was shaken at 900 rpm for 4 hours at room temperature and then transferred to a Multiscreen HTS, 96-well solubility filter plate to separate the residual solid and the filtrate. Quantification of the compound concentration in the filtrate was performed by HPLC-UV using single point calibration of a known concentration of the compound in DMSO. […] The dynamic range of the assay was 1-1000 μg/ml.

[1] = test system: global DNA methylation (5-methylcytosine); experiment: Global DNA methylation (5-methylcytosine) LC-MS/MS assay in SKM-1 tumor and mouse bone marrow; assay type: in vivo
Procedure: (§1) SKM-1 cells (3.8×10^6) suspended in 50% Matrigel (BD Biosciences)/50% Dulbecco's phosphate-buffered saline (DPBS) were implanted in 8-11 week old female NOD.CB17-Prkdc1NCrCrl mice. Tumors were measured with digital calipers, and stratified block randomized according to tumor size (P value >0.9085) into treatment groups with average tumor volumes of 219 or 1076 mm^3 for efficacy or PK/PD studies respectively. GSK4172239A was formulated weekly in Sterile water. Mice were measured twice weekly for body weight and tumor size. Dosing started on the day after randomization. Animals were dosed twice daily (BID) via oral gavage (PO) with Example 1 at 22, 67, or 200 mg/kg. A maximal tumor burden of 2,500 mm^3 for two consecutive measurements was not exceeded during the studies. For the PK/PD study, tumor, blood, and bone marrow were collected two hours following the 20th dose (10 days). For PK, blood was mixed 50:50 with water while tumor was homogenized (Omni hand-held homogenizer) in sterile water at a 1:4 dilution. Both samples were precipitated with acetonitrile, and concentrations of Example 4 were determined by HPLC—MS/MS (Waters Acquity uPLC, Sciex API5000). SKM-1 tumor and mouse bone marrow samples were assessed using a global DNA methylation (5-methylcytosine) LC-MS/MS assay. […] An HPLC—MS/MS method was optimized to quantify 2′-deoxycytidine and 5-methyl-2′-deoxycytidine. […] Concentrations of 2′-deoxycytidine and 5-methyl-2′-deoxycytidine were determined using standard curves generated from pure 2′-deoxycytidine (Sigma-Aldrich) and 5-methyl-2′-deoxycytidine (Santa Cruz Biotechnology). […]
(§2) Example 1 was evaluated in immunocompromised mice bearing subcutaneous SKM-1 human AML (acute myeloid leukemia) xenografts. […] In addition, the mechanistic consequence of inhibiting DNMT1, a decrease in DNA methylation, was assessed globally using a LC-MS/MS-based 5-methylcytosine assay. […] In a subsequent study, to examine anti-tumor efficacy, tumor volume was measured (n=10 animals per group) twice weekly for 4 weeks while on treatment.

[2] = test system: SKM-1 human AML (acute myeloid leukemia) xenografts; experiment: Anti-tumor efficacy in subcutaneous SKM-1 human AML xenografts; assay type: in vivo, mouse
Procedure: as §1, §2

Full-length human DNMT1 = Full-length human DNMT1 (Homo sapiens (Human), UniProt P26358); experiment: DNMT1 Scintillation Proximity Assay (SPA) - Assay A; assay type: biochemical; conditions: footnote a: DNMT1 full length
Procedure: DNMT1 Scintillation Proximity Assay (SPA)—Assay A (Full-Length Human DNMT1)
This assay used Scintillation Proximity technology in a signal increase format to evaluate the potency of compounds. Full-length human DNMT1, hemi-methylated DNA duplex*, and tritiated SAM were utilized to monitor activity. Assay plate creation consisted of the following parameters: 500 nL of an 11 pt, 3-fold serial dilution of compound was stamped into a 96 well Costar plate (#3884). Assay buffer mix was made on the day of assay consisting of: 20 mM Tris pH 7.5, 1 mM DTT, 1 mM EDTA, and 5% glycerol. A 2× enzyme mix was then prepared consisting of 30 nM DNMT1 protein (full length human DNMT, made in house) in assay buffer. The 2× substrate mix was made last, and consisted of 160 nM 40mer hemi-methylated DNA*, 0.48 μM ^3H-SAM, and 2.92 μM cold SAM in assay buffer (^3H-SAM is added last). The quench (1 mM SAH) was made in bulk and frozen at −20 until the time of use. Ten uL of the 2× substrate mix was added to the entire plate using a multichannel electronic pipette. Plate was shaken for at least 10s between additions to ensure mixing. Next, 20 uL of 2× quench mix was added to column 12 using a multichannel pipette (shake plate). Using a multichannel electronic pipette, 10 uL of 2× enzyme mix was added to the full plate starting with column […] (column 12 last to avoid pre-quench carryover). Plates were incubated on the shaker for 30 minutes with the plate covered. At the end of the incubation period, 20 uL of quench mix were added to all wells except column 12 (shake plate) followed by the addition of 20 uL of 3 mg/mL PerkinElmer PEI PVT SPA Beads (Cat. #RPNQ0097) diluted in DNAse free water and allowed to shake for at least 30 minutes. Plates were sealed with a clear seal and centrifuged at 500 rpm for 1 min. Plates were read on a MicroBeta (Perkin Elmer, read for ^3H (1 min/well).
Microsoft Excel was used to analyze the data up to Vi/Vo and GraFit was used to fit the data. Responses were normalized to the uninhibited (DMSO) and pre-quenched controls within each plate. Dose-response curves were analyzed using a three-parameter logistic fit with Ymin constrained to 0 and results were expressed as IC50 values.
Final assay conditions: 20 mM Tris (Hampton Research—HR-937-06), pH 7.5, 1 mM DTT (Invitrogen—P2325), 1 mM EDTA (Invitrogen—AM9260G), 5% Glycerol (Teknova—G1796), 0.02% Pluronic F127 (Life Technologies—P6866), 15 nM DNMT1 (full length human DNMT1—GSK made in-house), 240 nM ^3H-SAM (PerkinElmer—NET155H001MC), 1460 nM cold SAM (New England Biolabs—B9003S) and 80 nM 40-mer hemi-methylated DNA Oligonucleotide (Integrated DNA Technologies—custom), 1 mM SAH (Sigma A9384), and 1 mg/mL PEI PVT SPA Beads (Perkin Elmer RPNQ0097) resuspended in water.

[3] = Drug exposure in blood and tumor of mice bearing SKM-1 xenografts (PK/PD study); assay type: in vivo, mouse; conditions: 22, 67 or 200 mg/kg BID PO; blood and tumor two hours following the 20th dose
Procedure: as §1, with “A maximal tumor burden of 2,500 mm^3 for two consecutive measurements was not exceeded during the studies. For the PK/PD study, tumor, blood, and bone marrow were collected two hours following the 20th dose (10 days). For PK, blood was mixed 50:50 with water while tumor was homogenized (Omni hand-held homogenizer) in sterile water at a 1:4 dilution.” left out
Example 1 was evaluated in immunocompromised mice bearing subcutaneous SKM-1 human AML (acute myeloid leukemia) xenografts. […]

Sequence of Full-length human DNMT1 (P26358 whole entry): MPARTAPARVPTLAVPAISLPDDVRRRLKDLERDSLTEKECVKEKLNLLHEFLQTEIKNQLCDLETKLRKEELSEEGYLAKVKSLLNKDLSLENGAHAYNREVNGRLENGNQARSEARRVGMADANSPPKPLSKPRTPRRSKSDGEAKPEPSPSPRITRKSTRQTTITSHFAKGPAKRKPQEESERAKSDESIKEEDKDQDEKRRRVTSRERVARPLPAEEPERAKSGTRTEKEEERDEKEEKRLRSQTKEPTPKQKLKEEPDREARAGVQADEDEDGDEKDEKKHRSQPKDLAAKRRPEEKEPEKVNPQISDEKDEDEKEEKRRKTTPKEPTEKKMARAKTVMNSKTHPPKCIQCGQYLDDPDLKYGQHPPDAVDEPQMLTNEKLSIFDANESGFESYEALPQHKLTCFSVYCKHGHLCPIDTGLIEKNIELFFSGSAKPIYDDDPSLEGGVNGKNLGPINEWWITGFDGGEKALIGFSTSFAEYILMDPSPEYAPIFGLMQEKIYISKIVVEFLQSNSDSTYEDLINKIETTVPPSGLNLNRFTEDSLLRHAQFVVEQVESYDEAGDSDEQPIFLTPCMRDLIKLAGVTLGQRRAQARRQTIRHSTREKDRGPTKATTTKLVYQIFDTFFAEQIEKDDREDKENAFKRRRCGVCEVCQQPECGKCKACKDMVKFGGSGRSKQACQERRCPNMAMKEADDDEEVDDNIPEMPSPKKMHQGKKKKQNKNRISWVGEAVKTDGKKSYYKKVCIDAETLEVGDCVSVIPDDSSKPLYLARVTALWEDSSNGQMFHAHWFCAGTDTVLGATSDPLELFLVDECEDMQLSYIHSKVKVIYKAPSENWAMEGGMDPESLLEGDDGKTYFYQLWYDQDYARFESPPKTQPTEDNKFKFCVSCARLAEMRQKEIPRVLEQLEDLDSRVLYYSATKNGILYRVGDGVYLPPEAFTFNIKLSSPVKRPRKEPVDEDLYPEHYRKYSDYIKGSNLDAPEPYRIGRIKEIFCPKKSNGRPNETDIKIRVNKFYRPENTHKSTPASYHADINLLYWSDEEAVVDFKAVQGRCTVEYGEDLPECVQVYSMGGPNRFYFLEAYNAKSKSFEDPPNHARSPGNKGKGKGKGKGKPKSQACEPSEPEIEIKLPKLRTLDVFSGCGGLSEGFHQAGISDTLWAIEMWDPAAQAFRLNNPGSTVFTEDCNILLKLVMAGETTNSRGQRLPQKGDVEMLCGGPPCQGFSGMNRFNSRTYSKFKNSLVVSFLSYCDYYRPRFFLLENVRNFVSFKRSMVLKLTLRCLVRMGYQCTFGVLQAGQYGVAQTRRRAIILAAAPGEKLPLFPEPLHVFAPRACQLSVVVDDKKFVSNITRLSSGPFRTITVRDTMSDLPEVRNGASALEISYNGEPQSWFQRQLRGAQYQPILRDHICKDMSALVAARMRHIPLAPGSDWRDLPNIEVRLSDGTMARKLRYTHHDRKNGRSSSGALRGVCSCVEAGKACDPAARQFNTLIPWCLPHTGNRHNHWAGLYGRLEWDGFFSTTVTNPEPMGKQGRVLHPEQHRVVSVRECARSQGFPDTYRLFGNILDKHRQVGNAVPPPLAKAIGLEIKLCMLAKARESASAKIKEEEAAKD

solubility at 4 h (physchem): > 1000 µg/mL | IC50 (Full-length human DNMT1): 16.1 µM
SMILES: CCc1c(C#N)c(S[C@@H](C(=O)NP(=O)(O)O)c2ccc(OS(C)(=O)=O)cc2)nc(N(C)C)c1C#N [Example 1, (R)-(2-((3,5-dicyano-6-(dimethylamino)-4-ethylpyridin-2-yl)thio)-2-(4-((methylsulfonyl)oxy)phenyl)acetyl)phosphoramidic acid]
global DNA methylation in comparison to vehicle ([1]; 22, 67 or 200 mg/kg BID PO, 10 days): reduced at all doses | maximal change (reduction) in global DNA methylation in the tumor vs vehicle ([1]; SKM-1 tumor, 200 mg/kg BID PO, two hours following the 20th dose (10 days)): 49% | maximal change (reduction) in global DNA methylation in the bone marrow vs vehicle ([1]; mouse bone marrow, 200 mg/kg BID PO, two hours following the 20th dose (10 days)): 47% | tumor growth inhibition ([2]; 22 mg/kg BID PO, vs vehicle at day 22): 35% | tumor response ([2]; 200 mg/kg BID PO, vs vehicle at day 22): marked regression | tumor volume ([2]; 22, 67 or 200 mg/kg BID PO, measured twice weekly for 4 weeks): dose-dependent reduction | drug exposure (measured as the racemic active moiety Example 4) [3]: dose-proportional and roughly equivalent in blood and tumor
